In this test the target is T1, endothelin receptor (membrane of smooth muscle tissue of porcine aorta) (Sus scrofa, UniProt Q29010).
T1 construct: from tissue; host or cells: porcine aorta smooth muscle, membrane fraction
T1 sequence (Q29010 21-427): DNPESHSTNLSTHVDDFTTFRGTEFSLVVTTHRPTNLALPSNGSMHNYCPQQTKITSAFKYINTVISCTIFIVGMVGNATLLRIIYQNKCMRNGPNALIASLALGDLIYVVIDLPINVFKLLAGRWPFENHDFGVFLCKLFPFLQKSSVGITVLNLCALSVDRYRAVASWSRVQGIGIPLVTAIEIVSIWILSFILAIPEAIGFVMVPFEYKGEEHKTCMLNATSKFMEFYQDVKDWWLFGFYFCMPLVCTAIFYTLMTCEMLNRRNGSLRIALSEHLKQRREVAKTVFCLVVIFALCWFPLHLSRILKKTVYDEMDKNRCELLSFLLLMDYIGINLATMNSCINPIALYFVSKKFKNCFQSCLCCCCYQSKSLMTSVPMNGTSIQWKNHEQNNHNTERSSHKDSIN
Nature of the test: Endothelin binding inhibition test (125I-endothelin-1, porcine aorta smooth muscle membrane). The following applies: read-out: 125I-endothelin-1 binding inhibition; for inhibition at 1.1 µM: 1.1 μM test compound (no mark). How it is done:
The smooth muscle tissue of porcine aorta was homogenized in a buffer solution of 10 mM MOPS, pH 7.4, at 4° C. by a polytron. To the homogenate, sucrose was added to a concentration of 20%, and the mixture was centrifuged at 1,000×g for 15 minutes, and the supernatant was further centrifuged at 10,000×g for 15 minutes. The supernatant thereof was further centrifuged at 90,000×g for 40 minutes. The membrane precipitate thereby obtained was suspended in a buffer solution of 5 mM HEPES/Tris, pH 7.4, at a concentration of 25 mg/ml.
Then, 16 μl of this membrane suspension was added to 340 μl of 50 mM Tris/HCl buffer, pH 7.4, containing 10 μM calcium chloride, 10 μM magnesium chloride, 0.1 mM PMSF, 1 μM pepstatin A, 2 μM leupeptin, 1 mM 1,10-phenanthroline and 0.1% bovine serum albumin. To this suspension, 4 μl of (A) endothelin-1 (for nonspecific binding; 0.2 μM as the final concentration), (B) buffer solution A (for total control binding), or (C) a test compound (1.1 μM or 10 μM as the final concentration),was added. Further, to each suspension, 40 μl of ^125 I-endothelin-1 (12000-18000 cpm) was added. These mixtures were incubated at 25° C. for 4 hours, then subjected to filtration on a glass filter GF/C and then washed with 5 mM HEPES/Tris, pH 7.4, containing 0.3% bovine serum albumin. Then, the radioactivity trapped by the glass filter was measured, and the ^125 I-endothelin-1 binding inhibition D (%) at 1.1 μM or 10 μM of the test compound was determined by the following equation. [formula] Each test was performed in triplicate.
The test compounds are indicated by Compound Nos.

Like-named read-outs stand apart in the source and are kept apart here. Numbered stars: 1 amine (or outer) side, 2 acyl side, 3 side chain; on linkers, the order of the positions; unused ones are H or OH. Square brackets hold non-standard residues; d marks the D form. Peptide text beside a SMILES is read from it. * marks the point of attachment. ξ: configuration not given here. d(β3hF) = N[C@@H](CC(=O)O)Cc1ccccc1; β3hF = N[C@H](CC(=O)O)Cc1ccccc1; dPhg = N[C@@H](C(=O)O)c1ccccc1; d(β3hA) = C[C@@H](N)CC(=O)O; dNle = CCCC[C@@H](N)C(=O)O; ξ2Thi = NC(Cc1cccs1)C(=O)O; Cbz = O=C(OCc1ccccc1)*; Boc = CC(C)(C)OC(=O)*; Aib = CC(C)(N)C(=O)O; CO = O=C([*:1])[*:2]; Piv = CC(C)(C)C(=O)*; NHPh = c1ccc(N*)cc1; NHtBu = CC(C)(C)N*; GABA = NCCCC(=O)O; βAla = NCCC(=O)O

Take `CC(C)C[C@H](NC(=O)OC(C)(C)C)C(=O)N[C@H](Cc1c[nH]c2ccccc12)C(=O)N[C@@H](CC(=O)O)Cc1ccccc1` [Compound 20] (Boc-Leu-[dW]-[d(β3hF)]-OH): the inhibition at 1.1 µM came out at 44%.

As for `CC(C)C[C@H](NC(=O)N1CCCCCC1)C(=O)N[C@H](Cc1c[nH]c2ccccc12)C(=O)N[C@H](Cc1c[nH]cn1)C(=O)O` [Compound 48], the inhibition at 1.1 µM was 82%.

With `CC(C)C[C@H](NC(=O)OC(C)(C)C)C(=O)N[C@H](Cc1c[nH]c2ccccc12)C(=O)N[C@H](CC(=O)O)Cc1ccccc1` [Compound 21] (Boc-Leu-[dW]-[β3hF]-OH), the inhibition at 1.1 µM amounted to 39%.

Regarding `CC(C)C[C@H](NC(=O)OC(C)(C)C)C(=O)N[C@H](Cc1c[nH]c2ccccc12)C(=O)N[C@H](CCCCNC(=O)OCc1ccccc1)C(=O)O` [Compound 8] (Boc-Leu-[dW]-[dK](Cbz)-OH), the inhibition at 1.1 µM stood at 56%.

In the case of `CC(C)C[C@@H](C(=O)N[C@H](Cc1c[nH]c2ccccc12)C(=O)N[C@H](Cc1c[nH]c2ccccc12)C(=O)O)N1C(=O)CN(C2CCCC2)C1=O` [Compound 155], the inhibition at 1.1 µM amounted to 70%.

For `CC(C)C[C@H](NC(=O)N1CCCCCC1)C(=O)N[C@H](Cc1c[nH]c2ccccc12)C(=O)NN1CCC[C@H]1C(=O)O` [Compound 164], the inhibition at 1.1 µM was 71%.

As for `CC(C)C[C@H](NC(=O)OC(C)(C)C)C(=O)N[C@H](Cc1c[nH]c2ccccc12)C(=O)NC(Cc1cccs1)C(=O)O` (stereo partly drawn) [Compound 15] (Boc-Leu-[dW]-[ξ2Thi]-OH), the inhibition at 1.1 µM is 71%.

Regarding `CC(C)C[C@H](NC(=O)C=C1SC=CS1)C(=O)N[C@H](Cc1c[nH]c2ccccc12)C(=O)NCCC(=O)O` [Compound 67], the inhibition at 1.1 µM was 63%.

For `CC(C)C[C@H](NC(=O)OC(C)(C)C)C(=O)N[C@H](Cc1c[nH]c2ccccc12)C(=O)NCCCC(=O)O` [Compound 5] (Boc-Leu-[dW]-[GABA]-OH), the inhibition at 1.1 µM was determined as 33%.

As to `CC(C)C[C@H](NC(=O)Nc1ccccc1)C(=O)N[C@H](Cc1c[nH]c2ccccc12)C(=O)NCCC(=O)O` [Compound 84] ({NHPh-CO}-Leu-[dW]-[βAla]-OH), the inhibition at 1.1 µM was determined as 70%.

As for `CC(C)C[C@H](NC(=O)N1CCCCCC1)C(=O)N[C@H](Cc1c[nH]c2ccccc12)C(=O)NCCC(=O)NS(C)(=O)=O` [Compound 158], the inhibition at 1.1 µM came out at 57%.

`CC(C)C[C@H](NC(=O)N1CCCCCC1)C(=O)N[C@H](Cc1cn(C=O)c2ccccc12)C(=O)N[C@H](Cc1c[nH]cn1)C(=O)O` [Compound 156]: the inhibition at 1.1 µM worked out at 86%.

Turning to `CC(C)C[C@H](NC(=O)OC(C)(C)C)C(=O)N[C@H](Cc1c[nH]c2ccccc12)C(=O)NCC(O)C(=O)O` (stereo partly drawn) [Compound 17], the inhibition at 1.1 µM was determined as 38%.

On to `CC(C)C[C@H](NC(=O)N1CCCCCC1)C(=O)N[C@H](Cc1cn(C=O)c2ccccc12)C(=O)N[C@H](C)CC(=O)O` [Compound 132], for which the inhibition at 1.1 µM stood at 85%.

Take `CC(C)C[C@H](NC(=O)N1C(C)(C)CCCC1(C)C)C(=O)N[C@H](Cc1c[nH]c2ccccc12)C(=O)NCCC(=O)O` [Compound 74]: the inhibition at 1.1 µM is 70%.

For `CC(C)C[C@H](NC(=O)OC(C)(C)C)C(=O)N[C@H](Cc1c[nH]c2ccccc12)C(=O)N[C@@H](C(=O)O)c1ccccc1` [Compound 40] (Boc-Leu-[dW]-[dPhg]-OH), the inhibition at 1.1 µM was determined as 36%.

Consider `CC(C)C[C@H](NC(=O)N1CCCCCC1)C(=O)N[C@H](Cc1c[nH]c2ccccc12)C(=O)NCCC(=O)N(C)C` [Compound 136], for which the inhibition at 1.1 µM amounted to 32%.

For `CC(C)C[C@H](NC(=O)OC(C)(C)C)C(=O)N[C@H](Cc1c[nH]c2ccccc12)C(=O)NC(Cc1nccs1)C(=O)O` (stereo partly drawn) [Compound 16], the inhibition at 1.1 µM was determined as 74%.

With `CCCC[C@@H](NC(=O)[C@@H](Cc1c[nH]c2ccccc12)NC(=O)[C@H](CC(C)C)NC(=O)OC(C)(C)C)C(=O)O` [Compound 11] (Boc-Leu-[dW]-[dNle]-OH), the inhibition at 1.1 µM was 41%.

For `CC(C)C[C@H](NC(=O)Nc1ccccc1)C(=O)N[C@H](Cc1c[nH]c2ccccc12)C(=O)NCC(=O)O` [Compound 90] ({NHPh-CO}-Leu-[dW]-Gly-OH), the inhibition at 1.1 µM was found to be 46%.

With `CC(C)C[C@H](NC(=O)OC(C)(C)C)C(=O)N[C@H](Cc1c[nH]c2ccccc12)C(=O)NN(CC(=O)O)CC(=O)O` [Compound 147], the inhibition at 10 µM (10 μM test compound (marked *)) stood at 57%.

For the molecule `CC(C)C[C@H](NC(=O)N1CCCCCC1)C(=O)N[C@H](CC1C(=O)Nc2ccccc21)C(=O)N[C@H](C)CC(=O)O` (stereo partly drawn) [Compound 139], the inhibition at 1.1 µM was 66%.

As for `CC(C)C[C@H](NC(=O)OC(C)(C)C)C(=O)N[C@H](Cc1c[nH]c2ccccc12)C(=O)NC(C)(C)C(=O)O` [Compound 13] (Boc-Leu-[dW]-[Aib]-OH), the inhibition at 1.1 µM is 39%.

With `CC(C)C[C@H](NC(=O)C(C)(C)C)C(=O)N[C@H](Cc1c[nH]c2ccccc12)C(=O)NCCC(=O)O` [Compound 69] (Piv-Leu-[dW]-[βAla]-OH), the inhibition at 10 µM (10 μM test compound (marked *)) stood at 71%.

In the case of `CC(C)C[C@H](NC(=O)OC(C)(C)C)C(=O)N[C@H](Cc1c[nH]c2ccccc12)C(=O)N[C@H](CC(=O)O)C(=O)Nc1ccccc1` [Compound 44] (Boc-Leu-[dW]-[dD]-NHPh), the inhibition at 1.1 µM was found to be 30%.

Take `CC(C)C[C@H](NC(=O)OC(C)(C)C)C(=O)N[C@H](Cc1c[nH]c2ccccc12)C(=O)NCCC(=O)O` [Compound 29] (Boc-Leu-[dW]-[βAla]-OH): the inhibition at 1.1 µM was 69%.

`CC(C)C[C@H](NC(=O)C1CCCCCC1)C(=O)N[C@H](Cc1c[nH]c2ccccc12)C(=O)N[C@H](Cc1c[nH]c2ccccc12)C(=O)O` [Compound 200]: the inhibition at 1.1 µM worked out at 87%.

Regarding `CC(C)C[C@H](NC(=O)OC(C)(C)C)C(=O)N[C@H](Cc1c[nH]c2ccccc12)C(=O)N[C@H](CC(=O)O)C(N)=O` [Compound 36] (Boc-Leu-[dW]-[dD]-NH2), the inhibition at 1.1 µM amounted to 65%.

Turning to `COC(=O)C[C@@H](C)NC(=O)[C@@H](Cc1c[nH]c2ccccc12)NC(=O)[C@H](CC(C)C)NC(=O)N1CCCCCC1` [Compound 51], the inhibition at 1.1 µM was 68%.

Turning to `CC(C)C[C@H](NC(=O)OC(C)(C)C)C(=O)N[C@H](Cc1c[nH]c2ccccc12)C(=O)N[C@H](C)CC(=O)O` [Compound 1] (Boc-Leu-[dW]-[d(β3hA)]-OH), the inhibition at 1.1 µM is 74%.

With `CC(C)C[C@H](NC(=O)N1CCCCCC1)C(=O)N[C@H](Cc1c[nH]c2ccccc12)C(=O)NCCC(N)=O` [Compound 135], the inhibition at 1.1 µM amounted to 39%.

Regarding `COC(=O)[C@@H](Cc1c[nH]c2ccccc12)NC(=O)[C@@H](Cc1c[nH]c2ccccc12)NC(=O)[C@H](CC(C)C)NC(=O)N1CCCCCC1` [Compound 49], the inhibition at 1.1 µM is 85%.

`CC(C)C[C@H](NC(=O)N(C)C(C)(C)C)C(=O)N[C@H](Cc1cn(C=O)c2ccccc12)C(=O)N[C@H](Cc1c[nH]c2ccccc12)C(=O)O` [Compound 174]: the inhibition at 1.1 µM is 81%.

Consider `CC(C)C[C@H](NC(=O)OC(C)(C)C)C(=O)N[C@H](Cc1c[nH]c2ccccc12)C(=O)N[C@H](Cc1c[nH]cn1)C(=O)O` [Compound 4] (Boc-Leu-[dW]-[dH]-OH), for which the inhibition at 1.1 µM came out at 80%.

On to `CC(C)C[C@H](NC(=O)OC(C)(C)C)C(=O)N[C@H](Cc1c[nH]c2ccccc12)C(=O)NC(CC(=O)O)c1ccccc1` (stereo partly drawn) [Compound 14], for which the inhibition at 1.1 µM turned out to be 64%.

For the molecule `CC(C)C[C@H](NC(=O)NC(C)(C)C)C(=O)N[C@H](Cc1c[nH]c2ccccc12)C(=O)N[C@H](C)CC(=O)O` [Compound 80] ({NHtBu-CO}-Leu-[dW]-[d(β3hA)]-OH), the inhibition at 1.1 µM was found to be 73%.

As to `COP(=O)(OC)n1cc(C[C@@H](NC(=O)[C@H](CC(C)C)NC(=O)N2CCCCCC2)C(=O)N[C@H](Cc2c[nH]c3ccccc23)C(=O)O)c2ccccc21` [Compound 191], the inhibition at 10 µM was found to be 74%.

`CC(C)C[C@H](NC(=O)N1CCCC1(C)C)C(=O)N[C@H](Cc1c[nH]c2ccccc12)C(=O)N[C@H](Cc1c[nH]c2ccccc12)C(=O)O` [Compound 173]: the inhibition at 1.1 µM turned out to be 84%.

As to `CC(C)C[C@H](NC(=O)N(CC(C)C)C1CCCC1)C(=O)N[C@H](Cc1c[nH]c2ccccc12)C(=O)N[C@H](Cc1c[nH]c2ccccc12)C(=O)O` [Compound 172], the inhibition at 1.1 µM was determined as 87%.

The values are drawn from patent publication US5470833A, “Endothelin antagonistic peptide derivatives” (Banyu Pharmaceutical Co., Ltd., priority 1990, dated 1995).
